Experimental data reported in US8084196B2, “Method for the in vitro screening of anti-cancer compounds that inhibits SK3 activity, and said anti-cancer compounds” (priority 2006, dated 2011).

Assays:
[1] = system: SK3 protein; experiment: Western blot of SK3 protein after siRNA transfection, MDA-MB-435s; format: cell-based, human; conditions: 24, 48, 72 h after transfection vs scrambled-siRNA, greatest effect at 72 hours
Method: A—Top, Western blot patterns showing the silencing effect on the expression of SK3 protein—of two siRNAs designed against SK3 mRNA. Cells were transfected with siRNA-lipofectamine complexes for 24 h, 48 h and 72 h. A scrambled-siRNA was used as negative control. SiRNA oligonucleotide sequences are listed in the Materials and Methods section. Bottom, Histograms showing the inhibitory effect on […] cell migration after 24 h, 48 h and 72 h siRNA transfection with or without 10 nM apamin. Results from two separate experiments performed in triplicate are expressed as mean±S.E.M. Normalization of cell number performed as described in the legend of FIG. 1. Note that the cells have lost their sensitivity for apamin after siRNA transfection, indicating a specific effect on SK3 protein.
For Western blot experiments, proteins were electrotransferred onto polyvinylidene fluoride membranes which were incubated with antibodies directed against SK2 and SK3 proteins (1:1000) followed by incubation with a horseradish peroxidase-conjugated anti-rabbit IgG (1:5000; Tebu-Bio, France). Anti-SK2 directed against amino acids 542-559 and anti-SK3 directed against amino acids 2-21 (Sigma-Aldrich, France) were used for Western blot and immunocytochemical experiments. Anti-Actin directed against amino acids 20-33 (Sigma-Aldrich, France) was used for western blot loading control experiments. […]

[2] = system: MDA-MB-435s cells; format: cell-based, human; conditions: FIG. 4A; for number of migrating cells after siRNA transfection: MDA-MB-435s, 24, 48, 72 h after transfection
Method: Cells were seeded at 40000 in a cell culture insert in DMEM with 5% FBS±drugs or [K^+] 60 mM. […] 60 mM. After 24 h, cells of the lower compartment were stained with hematoxylin (A, bottom) and counted. The normalized cell number corresponded to the ratio of total number of migrating cells in presence of drug or [K^+] 60 mM/total number of migrating cells in control experiments. […] Scale bar=10 μm for the two panels.
(§1) Cell proliferation was determined using the tetrazolium salt reduction method, as described (Roger S, Potier M, Vandier C, Le Guennec J Y, Besson P. Description and role in proliferation of iberiotoxin-sensitive currents in different human mammary epithelial normal and cancerous cells. Biochim Biophys Acta 2004; 1667:190-9.). Cells were seeded on 24-well plates and grown for 48 h. […] Cell migration was analyzed in 24-well plates receiving 8-μm pore size polyethylene terephtalate membrane cell culture inserts (Becton Dickinson, France), as described (Roger S, Potier M, Vandier C, Le Guennec J Y, Besson P. Description and role in proliferation of iberiotoxin-sensitive currents in different human mammary epithelial normal and cancerous cells. Biochim Biophys Acta 2004; 1667:190-9.).

[3] = molecular target: SK3 (Homo sapiens, UniProt Q9UGI6); conditions: apamin: low concentration (1 nM); cited from earlier work
[4] = system: MDA-MB-435s cells; format: cell-based, human; conditions: current-clamp, FIG. 2D
Method: D—Variations of membrane potential recorded in control conditions (PSS without drugs, n=11) and in presence of TEA (n=7), 4-AP (n=8) and TEA plus 4-AP (n=3). Membrane potential was measured in current-clamp mode (I=0) just after the disruption of the patch membrane.
(§2) Whole-cell potassium currents and intracellular Ca^2+ ([Ca^2+]i) measurements were recorded as described (Roger S, Potier M, Vandier C, Le Guennec J Y, Besson P. Description and role in proliferation of iberiotoxin-sensitive currents in different human mammary epithelial normal and cancerous cells. (Biochim Biophys Acta 2004; 1667:190-9.). Signals were captured using 1322-A Digidata converter (Axon Instruments, USA) and pClamp 8.1 software (Axon Instruments, USA). The analysis were performed using Clampfit 8.1 and Origin 7.0 softwares (Microcal Software, Northampton, Mass., USA).
(§3) The physiological saline solution (PSS) in mM: NaCl 140, MgCl2 1, KCl 4, CaCl2 2, D-glucose 11.1, and HEPES 10, adjusted to pH 7.4 with NaOH. The pipette solution for the whole-cell recording, pCa=7 was (in mM): K-glutamate 125, KCl 20, CaCl2 0.37, MgCl2 1, Mg-ATP 1, EGTA 1, HEPES 10, adjusted to pH 7.2 with KOH. […] All drugs and chemicals were purchased from Sigma-Aldrich (St Quentin, France), except Lei-Dab7 which was a generous gift from Dr. J. M. Sabatier, UMR CNRS 6560, Marseille, France.

[5] = system: MDA-MB-435s cells; conditions: for decrease of outward currents: FIG. 2C
Method: Currents were generated by stepwise 8 mV depolarizing pulses (400 ms duration; 5 sec intervals) from a constant holding potential of −70 mV up to +58 mV. Signals were filtered at 1 kHz and digitized at 10 kHz.
B, C—Current-density was obtained by dividing the averaged steady-state current elicited at +26 mV (recorded during the latest 50 ms of the pulse) by the respective cell capacitance. Membrane capacitance was calculated by integrating the capacitive current measured during a 10 mV voltage step.
as §2, §3

[6] = molecular target: SK2 (Homo sapiens, UniProt Q9H2S1); conditions: apamin: low concentration (1 nM); cited from earlier work
[7] = system: 518A2 cells; experiment: Cell migration, 518A2 melanoma cells; format: cell-based; conditions: 518A2, 48 hours after transfection, FIG. 8B
Method: Histograms showing the effect of 10 nM apamin on cell migration (FIG. 5A). Cells were seeded at 40000 in a cell culture insert in DMEM with 5% FBS±apamin. The lower compartment of the insert contained DMEM with 10% FBS as a chemoattractant±apamin. After 24 h, cells of the lower side were stained with hematoxylin (FIG. 5B, right) and counted. The normalized cell number corresponded to the ratio of total number of migrating cells in presence of apamin/total number of migrating cells in control experiments. The apamin concentration selected has no effect on cell proliferation and viability. […] Mammary cancer MDA-MB-435s cells were used as control cell. […]
as §1, with “1667:190-9.).” for “1667:190-9.). Cells were seeded on 24-well plates and grown for 48 h.”

[8] = system: SK3 protein; experiment: Western blot of SK3 protein after siRNA transfection, 518A2; format: cell-based, human; conditions: 518A2, 48 hours after transfection vs scrambled-siRNA, FIG. 8A
Method: FIG. 8A—Western blot patterns showing the silencing effect on the expression of SK3 protein of two siRNAs designed against SK3 mRNA. Cells were transfected with siRNA-lipofectamine complexes for 48 h. A scrambled-siRNA was used as negative control. siRNA oligonucleotide sequences are listed in the Materials and Methods section.
For Western blot experiments, proteins were electrotransferred onto polyvinylidene fluoride membranes which were incubated with antibodies directed against SK2 and SK3 proteins (1:1000) followed by incubation with a horseradish peroxidase-conjugated anti-rabbit IgG (1:5000; Tebu-Bio, France). Anti-SK2 directed against amino acids 542-559 and anti-SK3 directed against amino acids 2-21 (Sigma-Aldrich, France) were used for Western blot and immunocytochemical experiments. Anti-Actin directed against amino acids 20-33 (Sigma-Aldrich, France) was used for western blot loading control experiments.
Two SK3 specific siRNA were designed: first set, hSK3-ex1-Sense 5′-GAAAGCGACUGAGUGACUAdTdT-3′ (sequence SEQ ID No. 5) and hSK3-ex1-Antisense 5′-UAGUCACUCAGUCGCUUCdTdT-3′, (sequence SEQ ID N 06) located in exon 1; second set, hSK3-ex3-Sense 5′-CCAUUCCUGGCGAGUACAAdTdT-3′ (sequence SEQ ID No. 7) and hSK3-ex3-Antisense 5′-UUGUACUCGCCAGGAAUGGdTdT-3′, (sequence SEQ ID No. 8) located in exon 3. […]

SK3 protein, sequence (Q9UGI6 other isoform, or with tags, fused parts or gaps DUP76-80): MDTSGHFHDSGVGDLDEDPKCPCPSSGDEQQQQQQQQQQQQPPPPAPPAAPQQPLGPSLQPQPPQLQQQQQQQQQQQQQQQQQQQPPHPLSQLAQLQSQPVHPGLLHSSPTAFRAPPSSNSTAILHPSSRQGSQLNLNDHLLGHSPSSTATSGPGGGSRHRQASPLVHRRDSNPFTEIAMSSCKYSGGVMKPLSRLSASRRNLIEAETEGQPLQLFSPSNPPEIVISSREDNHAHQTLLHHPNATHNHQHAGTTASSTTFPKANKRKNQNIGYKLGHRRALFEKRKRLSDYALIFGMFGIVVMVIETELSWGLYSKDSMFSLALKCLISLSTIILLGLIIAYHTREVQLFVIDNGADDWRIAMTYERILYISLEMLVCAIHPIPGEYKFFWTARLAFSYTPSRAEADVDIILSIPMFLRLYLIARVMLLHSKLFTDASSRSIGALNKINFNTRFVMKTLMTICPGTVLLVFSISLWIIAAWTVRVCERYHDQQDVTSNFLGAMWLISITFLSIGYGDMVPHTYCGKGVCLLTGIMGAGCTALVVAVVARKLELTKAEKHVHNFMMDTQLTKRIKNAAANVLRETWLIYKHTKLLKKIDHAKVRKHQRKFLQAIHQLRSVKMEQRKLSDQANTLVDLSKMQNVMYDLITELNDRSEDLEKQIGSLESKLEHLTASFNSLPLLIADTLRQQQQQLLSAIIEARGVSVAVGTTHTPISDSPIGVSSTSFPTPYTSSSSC
SK3, sequence (Q9UGI6 whole entry): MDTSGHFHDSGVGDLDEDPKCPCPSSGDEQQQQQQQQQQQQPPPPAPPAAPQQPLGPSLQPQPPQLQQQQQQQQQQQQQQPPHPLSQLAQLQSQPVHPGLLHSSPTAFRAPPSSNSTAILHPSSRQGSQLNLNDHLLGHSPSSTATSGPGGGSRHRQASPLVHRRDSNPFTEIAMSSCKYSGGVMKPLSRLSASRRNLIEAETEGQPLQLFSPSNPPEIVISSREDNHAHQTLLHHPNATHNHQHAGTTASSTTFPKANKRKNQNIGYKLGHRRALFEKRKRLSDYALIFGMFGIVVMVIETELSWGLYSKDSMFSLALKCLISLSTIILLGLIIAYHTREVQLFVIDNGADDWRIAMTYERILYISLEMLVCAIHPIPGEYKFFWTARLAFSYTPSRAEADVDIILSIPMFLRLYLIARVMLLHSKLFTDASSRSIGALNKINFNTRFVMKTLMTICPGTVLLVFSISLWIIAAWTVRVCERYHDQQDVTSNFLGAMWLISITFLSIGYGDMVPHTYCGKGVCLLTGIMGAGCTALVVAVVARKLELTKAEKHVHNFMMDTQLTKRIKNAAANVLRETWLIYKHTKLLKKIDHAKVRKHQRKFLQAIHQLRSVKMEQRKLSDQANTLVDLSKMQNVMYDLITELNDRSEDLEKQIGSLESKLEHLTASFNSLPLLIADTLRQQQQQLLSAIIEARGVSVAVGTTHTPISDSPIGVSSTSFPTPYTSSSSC
SK2, sequence (Q9H2S1 whole entry): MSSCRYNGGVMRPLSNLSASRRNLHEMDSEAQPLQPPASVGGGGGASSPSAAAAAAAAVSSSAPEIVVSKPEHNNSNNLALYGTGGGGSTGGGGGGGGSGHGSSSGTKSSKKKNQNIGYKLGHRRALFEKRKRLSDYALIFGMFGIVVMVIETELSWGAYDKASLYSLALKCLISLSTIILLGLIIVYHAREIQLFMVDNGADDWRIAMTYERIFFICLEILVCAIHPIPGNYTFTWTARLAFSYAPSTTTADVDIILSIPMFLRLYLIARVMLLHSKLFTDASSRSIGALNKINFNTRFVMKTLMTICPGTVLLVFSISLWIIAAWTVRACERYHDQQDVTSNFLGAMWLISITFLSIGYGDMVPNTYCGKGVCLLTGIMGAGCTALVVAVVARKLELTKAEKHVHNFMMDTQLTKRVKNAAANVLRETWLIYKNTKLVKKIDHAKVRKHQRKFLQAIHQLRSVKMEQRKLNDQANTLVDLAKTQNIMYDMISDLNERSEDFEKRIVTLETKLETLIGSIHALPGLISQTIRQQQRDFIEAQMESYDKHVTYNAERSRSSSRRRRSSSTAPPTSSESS

Row | Molecule | SK3 expression (Western blot) [1] | number of migrating cells after siRNA transfection [2] | block of SK3 channel [3] | effect on membrane potential [4] | decrease of outward currents [5] [%] | further results
1 | ΔExon3-siRNA: siRNA against SK3 exon 3, sense 5′-CCAUUCCUGGCGAGUACAAdTdT-3′ (SEQ ID No. 7), antisense SEQ ID No. 8 (sense CCAUUCCUGGCGAGUACAADTDT; antisense UUGUACUCGCCAGGAAUGGDTDT; chemistry not fully specified) | marked suppression | markedly reduced | – | – | – | relative efficiency of the siRNAs (Western blot and migration) ([2]; MDA-MB-435s): more efficient than ΔExon1-siRNA
2 | Nc1ccncc1 [4-AP, 4-aminopyridine] | – | – | blocks | depolarized | 50 | –
3 | CC[N+](CC)(CC)CC [TEA, tetraethylammonium] | – | – | blocks | depolarized | 50 | block of SK2 channel [6]: blocks
4 | ΔExon1-siRNA: siRNA against SK3 exon 1, sense 5′-GAAAGCGACUGAGUGACUAdTdT-3′ (SEQ ID No. 5), antisense SEQ ID No. 6 (sense GAAAGCGACUGAGUGACUADTDT; antisense UAGUCACUCAGUCGCUUCDTDT; chemistry not fully specified) | marked suppression | markedly reduced | – | – | – | number of migrating cells after siRNA transfection [7]: markedly reduced; SK3 expression (Western blot) [8]: decrease
5 | CC(C)C[C@@H]1NC(=O)[C@H](C)NC(=O)[C@H]([C@@H](C)O)NC(=O)[C@H](CCC(=O)O)NC(=O)[C@@H]2CCCN2C(=O)[C@H](C)NC(=O)[C@H](CCCCN)NC(=O)[C@@H]2CSSC[C@@H](C(=O)N[C@@H](CCC(N)=O)C(=O)N[C@@H](CCC(N)=O)C(=O)N[C@@H](Cc3cnc[nH]3)C(N)=O)NC(=O)[C@H](CCCNC(=N)N)NC(=O)[C@H](CCCNC(=N)N)NC(=O)[C@H](C)NC(=O)[C@H](CSSC[C@H](N)C(=O)N[C@@H](CC(N)=O)C(=O)N2)NC1=O [apamin] | – | – | – | – | – | IC50 ([5]; read-out: estimated IC50 of block of outward currents, whole-cell, dose-dependent, FIG. 2B): < 0.1 nM
